What was measured:
Type in all cases: in vivo
[1] = system: Musca domestica strain WHO-N; test: Musca domestica test (MUSCDO surface treatment & contact assay); details: 24 hours after contact, read-out: efficacy (mortality); for mortality at 4 mg/m2: surface concentration 4 mg/m^2, exposure 30 minutes; for mortality at 20 mg/m2: surface concentration 20 mg/m^2, exposure 30 minutes
Outline: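 Adult WHO-N flies exposed for 30 minutes on a glazed tile coated with compound dissolved in acetone (2 mg/ml) with 2000 ppm rapeseed oil methyl ester, acetone evaporated. Percent mortality read 24 hours after contact.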

[2] = system: Culex quinquefasciatus strain P00; test: Culex quinquefasciatus test (CULXFA surface treatment & contact assay); details: 24 hours after contact, read-out: efficacy (mortality); for mortality at 4 mg/m2: surface concentration 4 mg/m^2, exposure 30 minutes; for mortality at 20 mg/m2: surface concentration 20 mg/m^2, exposure 30 minutes
Outline: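 Compound dissolved in acetone (2 mg/ml) with 2000 ppm rapeseed oil methyl ester, applied to glazed tile and dried; adult C. quinquefasciatus strain P00 exposed to surface for 30 minutes. Mortality (%) scored 24 hours after contact.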

Spodoptera frugiperda = Spodoptera frugiperda spray test; details: 168 h, after 7 days, larvae on maize leaf sections
Outline: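 Read-out: % larval mortality at day 7, where 100% means all killed and 0% none killed. Compound diluted in water with 1000 ppm emulsifier, sprayed onto Zea mays leaf sections; dried sections then infested with S. frugiperda larvae.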

Boophilus microplus = Boophilus microplus injection test; details: Rhipicephalus microplus, 168 h; 20 μg/animal injected into the abdomen; adult engorged female ticks; egg deposition after 7 days; read-out: efficacy (infertile eggs)
Outline: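 Efficacy, from 0% (all eggs fertile) to 100% (all infertile), was scored on eggs laid by five engorged adult females. Each female was injected intra-abdominally with 1 μl of compound solution in DMSO. Fertile egg laying was checked at 7 days, with uncertain eggs kept until hatching at about 42 days.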

Ctenocephalides felis [3] = test: Ctenocephalides felis oral test; details: 48 h, 100 ppm in cattle blood, after 2 days, adult unfed cat fleas
Outline: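 Compound dissolved in DMSO and diluted in cattle blood to test concentration, offered to ~20 unfed adult fleas via a parafilm-sealed blood chamber held at 37° C (fleas at room temperature). Kill recorded at 2 days as % mortality.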

Nezara viridula = Nezara viridula spray test; details: 96 h, after 4 days, larvae on barley plants
Outline: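 Mortality (%) was assessed at day 4, from 0% (no bugs dead) to 100% (all dead). The spray solution was compound diluted to test concentration in water with 1000 ppm emulsifier and applied to barley carrying southern green stink bug larvae.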

Ctenocephalides felis [4] = test: Ctenocephalides felis in-vitro contact test, adult cat flea; details: 5 μg/cm^2 (=500 g/ha), after 48 hours, adult cat fleas, read-out: efficacy (fleas dead or moribund)
Outline: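 Compound in acetone coated onto inner walls of glass tubes, e.g. 900 ppm giving 5 μg/cm². After drying, 5–10 adult C. felis added per tube and held at room temperature. At 48 h, fleas unable to escape a 45–50 °C heating plate within 5 min scored dead/moribund, giving % efficacy.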

Myzus persicae = Myzus persicae oral test; details: 120 h, after 5 days
Outline: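 Aphid mortality (%) was recorded 5 days after a mixed Myzus persicae population began sucking, through parafilm, on compound solutions (acetone stock diluted with water) combined with sugar-supplemented IPL41 medium.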

SMILES | mortality at 4 mg/m2 [1] | mortality at 20 mg/m2 [1] | mortality at 4 mg/m2 [2] | mortality at 20 mg/m2 [2] | mortality at 100 g/ha (Spodoptera frugiperda) | mortality at 500 g/ha (Spodoptera frugiperda) | pest or weed control at 0.02 mg (Boophilus microplus) | mortality at 100 ppm (Ctenocephalides felis [3]) | mortality at 500 g/ha (Nezara viridula) | pest or weed control at 5 µg/cm2 (Ctenocephalides felis [4]) | mortality at 4 ppm (Myzus persicae) | mortality at 100 g/ha (Nezara viridula) | mortality at 20 ppm (Myzus persicae; 20 ppm)
C[C@H](NC(=O)c1cc(F)cc(C(F)(F)F)c1)c1ncnn1-c1ccc(C#N)cn1 [Example I-019] | 90 to 100% | 90 to 100% | 90 to 100% | 90 to 100% | 100% | 100% | 100% | 100% | 90% | 100% | – | – | –
C[C@H](NC(=O)c1cc(Cl)cc(C(F)(F)F)c1)c1ncnn1-c1ccc(NC(=O)C2CC2)cn1 [Example I-034, 3-chloro-N-[(1S)-1-(1-{5-[(cyclopropylcarbonyl)amino]pyridin-2-yl}-1H-1,2,4-triazol-5-yl)ethyl]-5-(trifluoromethyl)benzamide] | – | 90 to 100% | 90 to 100% | 90 to 100% | 100% | 100% | 100% | 100% | 100% | 100% | 100% | 100% | –
C[C@H](NC(=O)c1cc(F)cc(C#N)c1)c1ncnn1-c1ccc(C#N)cn1 [Example I-018] | 90 to 100% | 90 to 100% | 90 to 100% | 90 to 100% | 100% | 100% | 100% | 100% | 100% | 100% | 90% | 100% | –
C[C@H](NC(=O)c1cc(Cl)cc(C(F)(F)F)c1)c1ncnn1-c1ccc([N+](=O)[O-])cn1 [Example I-028] | 90 to 100% | 90 to 100% | 90 to 100% | 90 to 100% | 100% | 100% | 100% | 100% | 100% | – | 100% | 100% | –
C[C@H](NC(=O)c1cc(Cl)cc(OC(F)(F)F)c1)c1ncnn1-c1ccc(C#N)cn1 [Example I-041, 3-chloro-N-{(1S)-1-[1-(5-cyanopyridin-2-yl)-1H-1,2,4-triazol-5-yl]ethyl}-5-(trifluoromethoxy)benzamide] | 90 to 100% | 90 to 100% | 90 to 100% | 90 to 100% | 100% | 100% | 100% | 100% | 100% | 100% | 100% | 100% | –
C[C@H](NC(=O)c1cc(Cl)cc(S(F)(F)(F)(F)F)c1)c1ncnn1-c1ccc(C#N)cn1 [Example I-048] | 90 to 100% | 90 to 100% | 90 to 100% | 90 to 100% | 100% | 100% | 100% | 100% | 100% | 100% | 100% | 100% | –
C[C@H](NC(=O)c1cc(Cl)cc(SC(F)(F)F)c1)c1ncnn1-c1ccc(C#N)cn1 [Example I-042] | 90 to 100% | 90 to 100% | 90 to 100% | 90 to 100% | 100% | 100% | 100% | 100% | 100% | 90% | 100% | 100% | –
C[C@H](NC(=O)c1cc(C(F)(F)F)cc(C(F)(F)F)c1)c1ncnn1-c1ccc(C#N)cn1 [Example I-052] | 90 to 100% | 90 to 100% | 90 to 100% | 90 to 100% | 100% | 100% | 100% | 100% | 100% | 90% | 100% | 100% | –
CC(c1ncnn1-c1ccc(C#N)cn1)N(CC1CC1)C(=O)c1cc(Cl)cc(C(F)(F)F)c1 (stereo not drawn) [Example I-007] | 90 to 100% | 90 to 100% | 90 to 100% | 90 to 100% | 100% | 100% | 100% | 100% | 100% | 100% | 90% | 100% | 100%
C[C@H](NC(=O)c1cc(Cl)cc(C(F)(F)F)c1)c1ncnn1-c1ccc(C#N)cn1 [Example I-009] | 90 to 100% | 90 to 100% | 90 to 100% | – | 100% | 100% | 100% | 100% | 100% | 100% | 100% | – | –
Cc1nc([C@H](C)NC(=O)c2cc(Cl)cc(C(F)(F)F)c2)n(-c2ccc(C#N)cn2)n1 [Example I-049] | 90 to 100% | 90 to 100% | 90 to 100% | 90 to 100% | 100% | 100% | 100% | 100% | 100% | 100% | 100% | 100% | –
C[C@H](NC(=O)c1cc(Cl)cc(C(F)(F)F)c1)c1ncnn1-c1cc(C#N)ccn1 [Example I-015] | – | 90 to 100% | 90 to 100% | 90 to 100% | 100% | 100% | 100% | 100% | 100% | 100% | 100% | – | –
C[C@H](NC(=O)c1cc(Cl)cc(C(F)(F)F)c1)c1ncnn1-c1ncc(Cl)cc1F [Example I-013] | – | 90 to 100% | 90 to 100% | 90 to 100% | 100% | 100% | 100% | 100% | 100% | – | – | – | –
Cc1nc([C@H](C)NC(=O)c2cc(C(F)(F)F)cc(C(F)(F)F)c2)n(-c2ccc(C#N)cn2)n1 [Example I-056] | 90 to 100% | 90 to 100% | 90 to 100% | 90 to 100% | 100% | 100% | 100% | 100% | 100% | 100% | 100% | 100% | –
C[C@H](NC(=O)c1cc(Cl)cc(Br)c1)c1ncnn1-c1ccc(C#N)cn1 [Example I-046] | 90 to 100% | 90 to 100% | 90 to 100% | 90 to 100% | 100% | 100% | 100% | 100% | – | 100% | 100% | – | –
C[C@H](NC(=O)c1cc(Cl)cc(Cl)c1)c1ncnn1-c1ccc(C#N)cn1 [Example I-047] | 90 to 100% | 90 to 100% | 90 to 100% | 90 to 100% | 100% | 100% | 100% | 100% | 100% | 100% | – | – | –

Reference: patent US12171229B2, “Heteroaryl-triazole and heteroaryl-tetrazole compounds as pesticides” (BAYER AKTIENGESELLSCHAFT, priority 2018, dated 2024)
